Tests used:
[1] = target: Xanthine oxidase from bovine milk (Bos taurus, UniProt P80457); conditions: for inhibition of XO: each compound at 20 μM (FIG. 2); for time course of inhibition of XO activity: 20 nM XO added to 50 μM xanthine and 6.67 μM inhibitor (FIG. 3)
[2] = Peroxynitrite scavenging assay; conditions: 20 μM (FIG. 7C)
Method: Peroxynitrite Scavenging Assay—Peroxynitrite (ONOO^−) was generated by mixing 5 mL acidic solution (0.6 M HCl) of H2O2 (0.7 M) and 5 mL of 0.6 M KNO2 in an ice bath for 1 second and the reaction was quenched with 5 mL of ice-cold 1.2 M NaOH. Residual H2O2 was removed using granular MnO2 prewashed with 1.2 M NaOH and the reaction mixture was then left overnight at −20° C. Concentrations of ONOO^− were determined before each experiment at 302 nm using a molar extinction coefficient of 1,670 M^−1 cm^−1. The final concentrations of reagents used in the assay are as follows: 25 μM ONOO^−, 10 μM DTPA, 5 μM DHR 123, 0.1 M phosphate buffer, pH 7.4. The ONOO^− scavenging assay was performed by monitoring the oxidation of dihydrorhodamine (DHR 123) by ONOO^− spectrophotometrically at 500 nm.

[3] = system: allantoxanamide induced hyperuricemic mice; assay: Hypouricemic effect in allantoxanamide induced hyperuricemic mice; format: in vivo, C57BL/6 mice; conditions: 100 mg/kg oral before 200 mg/kg allantoxanamide i.p., up to 4 hours (FIG. 13)
Method: A hyperuricemia mouse model was used. Allantoxanamide, a potent uricase inhibitor, was used to induce hyperuricemia in mice in this study. […] The mice were subsequently intraperitoneally injected with allantoxanamide at 200 mg/kg in 0.5% CMC-Na in a volume of 0.1 ml/10 g mouse body weight just after the tested drug oral administration to increase the serum uric acid level. […] The negative control mice were administered PEG400 only followed by i.p. allantoxanamide. The normal group mice were administered PEG400 only followed by i.p. CMC-Na only. Food and water were withheld overnight prior to the study. Whole blood samples were collected from mice through orbital vein bleeding at the end of the study. The mice were anaesthetized with diethyl ether inside a chamber. The blood was allowed to clot for 1 h at room temperature and then centrifuged at 2350×g for 4 min to obtain the serum. The serum was kept on ice and assayed immediately. Serum uric acid was determined with the phosphotungstate method, as known to those of skill in the art.

[4] = Superoxide scavenging assay (xanthine-xanthine oxidase system, NBT); conditions: 20 μM (FIG. 7D)
Method: Superoxide Scavenging Assay—Superoxide (O2^−.) scavenging activity was assayed in the xanthine-xanthine oxidase system and determined by the inhibition of the reduction of nitro blue tetrazolium (NBT) to form blue formazan which has an absorption at 560 nm. The final concentrations of reagents used in the assay are as follows: 16.8 mU xanthine oxidase, 25 μM xanthine, 50 μM NBT, and 0.1 M phosphate buffer (pH 8.5). […] The abilities of polyphenols to scavenge O2^−. were compared with that of GSH.

XO = target: T1, XO (Bos taurus, UniProt P80457); assay: Conversion of DHNB to products by XO; format: biochemical, bovine; conditions: room temperature
T1 construct: Xanthine oxidase from bovine milk; purchased Sigma Chemical Co. (St. Louis, Mo.); host or cells: bovine milk (natural source)
T1 sequence (P80457 whole entry): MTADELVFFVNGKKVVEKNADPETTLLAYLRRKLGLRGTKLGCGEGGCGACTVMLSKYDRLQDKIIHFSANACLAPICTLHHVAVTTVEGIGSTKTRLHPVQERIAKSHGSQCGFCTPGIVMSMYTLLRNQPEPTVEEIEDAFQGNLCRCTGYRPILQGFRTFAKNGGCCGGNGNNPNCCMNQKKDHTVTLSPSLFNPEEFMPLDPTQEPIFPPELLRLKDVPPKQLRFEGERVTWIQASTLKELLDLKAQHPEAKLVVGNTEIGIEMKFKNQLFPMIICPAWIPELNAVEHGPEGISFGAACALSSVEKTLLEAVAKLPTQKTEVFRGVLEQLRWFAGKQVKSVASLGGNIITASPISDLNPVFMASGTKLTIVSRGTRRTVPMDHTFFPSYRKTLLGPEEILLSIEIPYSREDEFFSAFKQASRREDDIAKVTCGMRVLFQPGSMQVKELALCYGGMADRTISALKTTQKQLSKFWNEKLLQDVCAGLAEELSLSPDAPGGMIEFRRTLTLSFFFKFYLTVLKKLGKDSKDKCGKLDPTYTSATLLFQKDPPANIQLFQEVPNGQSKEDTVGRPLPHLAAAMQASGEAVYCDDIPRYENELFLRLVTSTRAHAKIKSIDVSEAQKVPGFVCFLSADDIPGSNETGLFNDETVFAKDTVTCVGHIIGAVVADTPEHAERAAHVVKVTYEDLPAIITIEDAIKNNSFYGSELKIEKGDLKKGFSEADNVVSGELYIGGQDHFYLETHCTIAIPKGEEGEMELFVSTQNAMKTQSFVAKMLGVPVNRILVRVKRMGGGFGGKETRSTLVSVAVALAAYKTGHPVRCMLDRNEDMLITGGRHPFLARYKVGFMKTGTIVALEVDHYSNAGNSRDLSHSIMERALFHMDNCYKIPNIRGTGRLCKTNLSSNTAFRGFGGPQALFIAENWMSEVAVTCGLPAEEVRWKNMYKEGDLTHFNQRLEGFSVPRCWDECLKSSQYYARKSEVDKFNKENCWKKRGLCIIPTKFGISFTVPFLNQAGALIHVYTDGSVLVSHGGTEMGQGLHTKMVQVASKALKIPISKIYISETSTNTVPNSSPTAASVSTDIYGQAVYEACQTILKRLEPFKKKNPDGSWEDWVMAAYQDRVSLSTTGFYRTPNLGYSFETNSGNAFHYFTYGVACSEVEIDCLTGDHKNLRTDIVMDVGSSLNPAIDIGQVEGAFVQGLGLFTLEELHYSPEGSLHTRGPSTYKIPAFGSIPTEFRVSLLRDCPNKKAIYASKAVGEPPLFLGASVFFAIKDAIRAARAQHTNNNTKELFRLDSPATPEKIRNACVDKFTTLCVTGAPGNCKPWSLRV

[5] = Antioxidant activity of polyphenols (summary); conditions: FIG. 7

Xanthine oxidase from bovine milk, sequence (P80457 whole entry): as above

Row | Compound | inhibition of XO [1] | ONOO^− scavenging effect [2] | also measured
1 | O=Cc1cc(O)c(O)cc1[N+](=O)[O-] [DH6NB, 3,4-Dihydroxy-6-nitrobenzaldehyde] | inhibitory effects on XO | strong scavenging effect | –
2 | O=Cc1cc(O)c(O)c([N+](=O)[O-])c1 [DHNB, 3,4-Dihydroxy-5-nitrobenzaldehyde] | inhibitory effects on XO | strong scavenging effect | time course of inhibition of XO activity [1]: time-dependent inhibition; XO inhibition after treatment with reducing agents ([1]; 20 μM DHNB, then GSH, DTT or 2-ME 20 mM (FIG. 5)): did not abolish the inhibition; initial rates with increasing xanthine concentrations (Dixon plot) ([1]; DHNB concentration fixed, 1 min pre-incubation (FIG. 1B)): did not change with increasing xanthine concentrations; histology analysis for the liver, kidney, and heart vs control mice (C57BL/6 mice; mouse, in vivo): did not show any difference; serum urate levels (hypouricemic effect) [3]: significantly lowered in 2 hours and maintained at a level just slightly higher than the normal level in 4 hours
3 | O=Cc1ccc(O)c(O)c1 [DHB-CHO, 3,4-dihydroxybenzaldehyde] | inhibitory effects on XO | strong scavenging effect | –
4 | O=C(O)/C=C/c1ccc(O)c(O)c1 [caffeic acid, reference compound] | no effect on XO | strong scavenging effect | –
5 | O.O=Cc1cc(O)c(O)c(O)c1 [THB-CHO, 3,4,5-trihydroxybenzaldehyde hydrate] | inhibitory effects on XO | strong scavenging effect | IC50 of XO activity inhibition ([1]; 20 nM XO, 50 μM xanthine, phosphate buffer pH 7.4, 25° C.): too high to determine; superoxide scavenging effect [4]: strong scavenging effects on superoxide
6 | O=C(O)c1cc(O)c(O)c([N+](=O)[O-])c1 [3,4-dihydroxy-5-nitrobenzoic acid] | – | – | inhibitory effect of the DHNB/XO product on XO (XO): no inhibitory effect on XO
7 | COc1ccc(CO)cc1OC [DMB-CH2OH, 3,4-dimethoxybenzyl alcohol, reference compound] | no effect on XO | – | –
8 | O=C(O)c1ccc(O)c(O)c1 [DHB-COOH, 3,4-dihydroxybenzoic acid, reference compound] | no effect on XO | – | –
9 | COc1cc(C=O)ccc1O [Vanillin, reference compound] | no inhibition on XO activity | – | –
10 | Oc1ncnc2[nH]ncc12 [allopurinol, reference compound] | – | – | time course of inhibition of XO activity [1]: time-dependent inhibition; pups died in two days (C57BL/6 mice; 500 mg/kg, total 19 pups of surviving mice): eight; antioxidant activity (scavenging of DPPH, ONOO^−, HOCl, superoxide ion) [5]: does not possess the antioxidant properties; serum urate levels (hypouricemic effect) [3]: significantly lowered the serum urate level close to the normal level
11 | O=C(O)c1cc(O)c(O)c(O)c1 [gallic acid, reference compound] | no effect on XO | strong scavenging effect | –

— patent US9622988B2, “Small molecule xanthine oxidase inhibitors and methods of use” (Baylor College of Medicine, priority 2012, dated 2017)
